Test results reported in the NIST ThermoML archive (doi:10.1016/j.jct.2016.07.005).

Tests used:
[1] = refractive index (Na D-line) (dimensionless); xn = mol fraction of the nth substance listed; conditions: 100 kPa, Liquid, Standard Abbe refractometry, x2 = 0
[2] = xn = mol fraction of the nth substance listed; conditions: 100 kPa, Liquid, x2 = 0; for viscosity: Concentric cylinders viscometry; for mass density: Vibrating tube method
[3] = 100 kPa, Liquid; for viscosity: Concentric cylinders viscometry; for mass density: Vibrating tube method
[4] = refractive index (Na D-line) (dimensionless); conditions: 100 kPa, Liquid, Standard Abbe refractometry

CCCCO [butan-1-ol] + CN1CCC[C@H]1c1cccnc1
Conditions | mass density, [2] [kg/m3] | refractive index, [1] | viscosity, [2] [mPa·s]
293.15 K | 809.819 | 1.39922 | 2.914
298.15 K | 805.995 | 1.39719 | 2.564
303.15 K | 802.148 | 1.39517 | 2.258
308.15 K | 798.276 | 1.39311 | 1.994
313.15 K | 794.372 | 1.39102 | 1.777
318.15 K | 790.429 | 1.38896 | 1.589
323.15 K | 786.444 | 1.38688 | 1.372

CCC(C)O (stereo not given) [butan-2-ol]
Conditions | mass density, [3] [kg/m3] | refractive index, [4] | viscosity, [3] [mPa·s]
293.15 K | 807.19 | 1.39715 | 3.76
298.15 K | 803.049 | 1.39497 | 3.093
303.15 K | 798.829 | 1.39274 | 2.566
308.15 K | 794.525 | 1.39045 | 2.149
313.15 K | 790.127 | 1.38803 | 1.816
318.15 K | 785.636 | 1.38571 | 1.548
323.15 K | 781.043 | 1.38322 | 1.332

CCC(C)O (stereo not given) [butan-2-ol] + CN1CCC[C@H]1c1cccnc1
Conditions | mass density, [2] [kg/m3] | refractive index, [1] | viscosity, [2] [mPa·s]
293.15 K | 807.19 | 1.39715 | 3.76
298.15 K | 803.049 | 1.39497 | 3.093
303.15 K | 798.829 | 1.39274 | 2.566
308.15 K | 794.525 | 1.39045 | 2.149
313.15 K | 790.127 | 1.38803 | 1.816
318.15 K | 785.636 | 1.38571 | 1.548
323.15 K | 781.043 | 1.38322 | 1.332

OCCCO [propan-1,3-diol]
Conditions | mass density, [3] [kg/m3] | refractive index, [4] | viscosity, [3] [mPa·s]
293.15 K | 1053.03 | 1.43918 | 52.31
298.15 K | 1049.9 | 1.43783 | 41.55
303.15 K | 1046.77 | 1.43648 | 33.22
308.15 K | 1043.63 | 1.43515 | 26.87
313.15 K | 1040.49 | 1.43382 | 21.85
318.15 K | 1037.33 | 1.4324 | 18.12
323.15 K | 1034.16 | 1.43101 | 15.21

OCCCO [propan-1,3-diol] + CN1CCC[C@H]1c1cccnc1
Conditions | mass density, [2] [kg/m3] | refractive index, [1] | viscosity, [2] [mPa·s]
293.15 K | 1053.03 | 1.43918 | 52.31
298.15 K | 1049.9 | 1.43783 | 41.55
303.15 K | 1046.77 | 1.43648 | 33.22
308.15 K | 1043.63 | 1.43515 | 26.87
313.15 K | 1040.49 | 1.43382 | 21.85
318.15 K | 1037.33 | 1.4324 | 18.12
323.15 K | 1034.16 | 1.43101 | 15.21
